In US20200138056A1, “ANIMAL FEED SUPPLEMENT” (MOOTRAL SA, priority 2017, published 2020):

Experiments:
ruminal fluid [1] = experiment: in vitro Hohenheim gas test (HGT), methane concentration in fermentation gas; format: cell-based, sheep; settings: 98.8 μg/ml; for Average Reduction (%) / Percentage of Control (First Run) / Percentage of Control (Second Run): methane; for Average Reduction (%): average of two runs
Procedure: (§1) The in vitro Hohenheim gas test (HGT) including the preparation of all buffers and reagents was carried out according to the protocol of Menke and Steingass (1988), “Menke K. H., Steingass H., Estimation of the energetic feed value obtained from chemical analysis and gas production using rumen fluid, Anim. Res. Dev. 28, 7-55”, the contents of which are incorporated herein by reference.
Briefly, ruminal fluid was strained through four layers of gauze (1 mm pore size, type 17 MedPro, Novamed AG, Flawil, Switzerland), before being mixed with preheated, reduced Menke buffer (Menke and Steingass, 1988). The ruminal fluid/buffer mixture was then dispensed into pre-warmed incubation units containing the respective test additives. Each airtight syringe unit contained 25 ml of a ruminal fluid/buffer mixture (1:3; v/v), 300 mg dried and ground total mixed ration (TMR) and […] of the test substrate prepared to give a desired concentration ml^−1. Each test substrate and controls were tested in six replicates, with each run including a substrate control (rumen fluid plus 300 mg dried and ground substrate of the total mixed ration (TMR) fed to the fistulated sheep from which the ruminal fluid was obtained). Each substrate was also tested on different days to allow for variability in the microbial community. This mixture was incubated for 8 hours at a constant temperature of 39° C. After 8 hours, total gas and liquid volumes were recorded from the calibrated scale printed on the incubation units and fermentation was terminated by decanting only the incubation liquid from the incubation units while fermentation gas was left inside. Then […] of gas was drawn from the incubation units with a Hamilton syringe (Hamilton, AG, Bonaduz, Switzerland) through a gas-tight septum covering the second outlet of the modified units. The main constituents of the flavonoid mix were naringin and neohesperidin at a ratio of 2.10:0.92. Monensin, a polyether antibiotic isolated from Streptomyces cinnamonensis, was used as a positive control.
Fermentation gas was analysed on a Hewlett Packard gas chromatograph (model 5890 Series II, Avondale, Pa., USA) for methane concentration. For the analysis of the volatile fatty acids (VFA), samples were prepared according to the method of Doane et al. (1998) and determined by HPLC (LaChrom, L-7000 series, Hitachi Ltd., Tokyo, Japan) following the protocol of Ehrlich et al. (1981). Reduction in methane emission results in accumulation of H2, which leads to the decreases of acetate:propionate ratio and acetate:butyrate ratio. This decreased ratio indicates an increase in propionate and butyrate (as formation of propionate and butyrate uses up the H2). The increase in propionate would then result in an increase of meat productivity in ruminants, while the increase in butyrate results in an increase of milk productivity in ruminants.
The in vitro Hohenheim gas test (HGT) was used to measure average reduction in methane using a composition comprising allicin and a green tea extract and a composition comprising allicin and a pomegranate extract. The green tea and pomegranate extracts were purchased from Ethical Natural Inc. (USA).
A composition comprising allicin and the flavonoid mix used in Example 1 was also tested. Monensin, a polyether antibiotic isolated from Streptomyces cinnamonensis, was used as a positive control.

ruminal fluid [2] = experiment: in vitro Hohenheim gas test (HGT), volatile fatty acids (VFA) by HPLC; format: cell-based, sheep; settings: Table 2; 98.8 μg/ml
Procedure: as §1
Briefly, ruminal fluid was strained through four layers of gauze (1 mm pore size, type 17 MedPro, Novamed AG, Flawil, Switzerland), before being mixed with preheated, reduced Menke buffer (Menke and Steingass, 1988). The ruminal fluid/buffer mixture was then dispensed into pre-warmed incubation units containing the respective test additives. […] After 8 hours, total gas and liquid volumes were recorded from the calibrated scale printed on the incubation units and fermentation was terminated by decanting only the incubation liquid from the incubation units while fermentation gas was left inside. […]
Fermentation gas was analysed on a Hewlett Packard gas chromatograph (model 5890 Series II, Avondale, Pa., USA) for methane concentration. For the analysis of the volatile fatty acids (VFA), samples were prepared according to the method of Doane et al. (1998) and determined by HPLC (LaChrom, L-7000 series, Hitachi Ltd., Tokyo, Japan) following the protocol of Ehrlich et al. (1981). […]

Compound: CC[C@@]1([C@@H]2O[C@@H]([C@H]3O[C@@](O)(CO)[C@H](C)C[C@@H]3C)C[C@@H]2C)CC[C@H]([C@]2(C)CC[C@]3(C[C@H](O)[C@@H](C)[C@@H]([C@@H](C)[C@@H](OC)[C@H](C)C(=O)O)O3)O2)O1 [Monensin]
- Average Methane Concentration (%) (First Run) (ruminal fluid [1]; Table 1, 8 h, 39° C.): 8.89%
- Average Methane Concentration (%) (Second Run) (ruminal fluid [1]; Table 1, 8 h, 39° C.): 9.71%
- Average Reduction (%) (ruminal fluid [1]; Table 1): 27%
- Percentage of Control (First Run) (ruminal fluid [1]; Table 1): 73%
- Percentage of Control (Second Run) (ruminal fluid [1]; Table 1): 74%
- Average Methane Concentration (%) (First Run) (ruminal fluid [1]; Table 3): 8.2%
- Average Methane Concentration (%) (Second Run) (ruminal fluid [1]; Table 3): 9.9%
- Average Reduction (%) (ruminal fluid [1]; Table 3): 27%
- Percentage of Control (First Run) (ruminal fluid [1]; Table 3): 66%
- Percentage of Control (Second Run) (ruminal fluid [1]; Table 3): 80%
- Average Methane Concentration (%) (First Run) (ruminal fluid [1]; Table 4): 8.1%
- Average Methane Concentration (%) (Second Run) (ruminal fluid [1]; Table 4): 7.1%
- Average Reduction (%) (ruminal fluid [1]; Table 4): 33%
- Percentage of Control (First Run) (ruminal fluid [1]; Table 4): 67%
- Percentage of Control (Second Run) (ruminal fluid [1]; Table 4): 66%
- Butyrate Percentage of Control (%) (ruminal fluid [2]): 73%
- Propionate Percentage of Control (%) (ruminal fluid [2]): 116%
